According to patent US20070117152A1, “Biosensor” (FUJIFILM Corporation, priority 2005, published 2007):

How the values were obtained:
[1] = molecular target: T1, Bovine Carbonic Anhydrase (Bos taurus, UniProt P00921); assay: Evaluation of binding ability of hydrochlorothiazide on CA-immobilized chip by surface plasmon resonance (Example 2); conditions: 50 μM in 1×PBS pH 7.4
T1 construct: purchased SIGMA
Method: (§1) The solution in the measurement chip was removed, and the dielectric block was covered with silicone rubber to prepare a cell having an internal volume of 15 μl. The silicone rubber cover was provided with two pores with diameters of 1 mm, and a teflon tube (i.d.: 0.5 mm; o.d.: 1 mm) was allowed to path therethrough to prepare a flow channel system. The chip provided with such flow channel system was mounted on the surface plasmon resonance measurement device of the present invention. Hereafter, liquid exchange was carried out by pouring 500 μl of liquid for 5 seconds.
The flow channel was filled with 70 μl of a mixed solution of 200 mM EDC (N-ethyl-N′-(3-dimethylaminopropyl)carbodiimide hydrochloride) and 50 mM NHS (N-hydroxysuccinimide), and was then allowed to stand for 10 minutes. After the liquid exchange was carried out twice with 100 μl of Acetate 5.0 buffer (BIAcore), the liquid was exchanged with the acetate 5.0 solution containing Bovine Carbonic Anhydrase (hereinafter referred to as CA) (SIGMA) with the concentration shown in Table 2, and the resultant was allowed to stand for a certain period to immobilize CA. The inside of the chip was exchanged with 1 M ethanolamine solution and was then allowed to stand for 10 minutes. The interior of the chip was exchanged twice with 100 μl of Acetate 5.0 buffer to prepare CA-immobilized chip. The amount of the immobilized proteins was determined based on changes in signal intensities before and after CA immobilization. Also, the period for adding CA solution is changed, and the minimum period necessary to achieve the immobilized CA amount of 3000 RU or more was determined.
The flow channel system of the CA-immobilized chips, the amount of CA immobilized thereto was approximately 3,000 RU, was filled with 1×PBS buffer (pH 7.4). Based on the signal intensity before liquid exchange, changes in the signal intensity were measured at intervals of 0.5 seconds. The content of the flow channel system was exchanged with a hydrochlorothiazide solution (Sigma) (dissolved in 1×PBS (pH 7.4) to result in 50 μM therein). Changes in signal intensities were determined from 5 seconds before the initiation of the exchange to 2 minutes after the exchange.

Carbonic anhydrase = Carbonic anhydrase (Bos taurus, UniProt P00921); assay: Evaluation of binding ability of hydrochlorothiazide on CA-immobilized chip by surface plasmon resonance (Example 1); conditions: 50 μM in 1×PBS pH 7.4
Carbonic anhydrase, sequence (P00921 whole entry): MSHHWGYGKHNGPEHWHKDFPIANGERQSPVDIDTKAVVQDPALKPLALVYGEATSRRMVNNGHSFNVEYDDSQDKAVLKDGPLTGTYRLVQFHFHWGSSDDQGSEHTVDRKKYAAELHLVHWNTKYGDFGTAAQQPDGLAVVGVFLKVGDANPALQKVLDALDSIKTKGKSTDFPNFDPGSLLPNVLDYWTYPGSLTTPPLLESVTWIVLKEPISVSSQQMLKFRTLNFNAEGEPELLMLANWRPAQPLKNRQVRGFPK
Method: as §1
The flow channel was filled with 70 μl of a mixed solution of 200 mM EDC (N-ethyl-N′-(3-dimethylaminopropyl)carbodiimide hydrochloride) and 50 mM NHS (N-hydroxysuccinimide), and was then allowed to stand for 10 minutes. […] The amount of the immobilized proteins was determined based on changes in signal intensities before and after protein immobilization.
[…] Based on the signal intensity before liquid exchange, changes in the signal intensity were measured at intervals of 0.5 seconds. […] Changes in signal intensities were determined from 5 seconds before the initiation of the exchange to 2 minutes after the exchange.

T1 sequence (P00921 whole entry): as above

Q: Which results are given for `NS(=O)(=O)c1cc2c(cc1Cl)NCNS2(=O)=O` [Hydrochlorothiazide, hydrochlorothiazide]?
A: Hydrochlorothiazide Binding amount ([1]; Level 2: dextran 15% by weight chip, CA 200 μg/ml): −15 RU; Hydrochlorothiazide Binding amount ([1]; Level 3: dextran 25% by weight chip, CA 20 μg/ml): 2 RU; Hydrochlorothiazide Binding amount ([1]; Level 4: dextran 25% by weight chip, CA 200 μg/ml): −30 RU; Hydrochlorothiazide Binding amount ([1]; Level 5: amylose 10% by weight chip, CA 20 μg/ml): 17 RU; Hydrochlorothiazide Binding amount ([1]; Level 6: amylose 10% by weight chip, CA 200 μg/ml): 11 RU; Hydrochlorothiazide Binding amount ([1]; Level 7: amylose 15% by weight chip, CA 20 μg/ml): 15 RU; Hydrochlorothiazide Binding amount ([1]; Level 8: amylose 15% by weight chip, CA 200 μg/ml): 10 RU; Hydrochlorothiazide Binding amount (Carbonic anhydrase; Level 1: dextran (branched) chip, carbonic anhydrase immobilized 1500 RU): 5 RU; Hydrochlorothiazide Binding amount (Carbonic anhydrase; Level 5: pullulan (linear) chip, carbonic anhydrase immobilized 2500 RU): 10 RU
